Measurements taken from patent US11291642B2, “Dimethyl fumarate particles and pharmaceutical compositions thereof” (BIOGEN MA INC., priority 2015, dated 2022).
Counter-ions that a name gives are not always drawn.

What was measured:
[1] = Comparison of unmilled coarse DMF versus wet-milled DMF for enteric coating in fluid bed; type: physicochemical; conditions: for Coated crystals: enterically coated particles made from the named API
Procedure: The enteric coated DMF is prepared using a Glatt GPCG-2 fluid bed granulator with a 6′ Wurster column. Dissolution was run with USP apparatus II by the Pharmaceutical Analytical Development Department with the following method.
DMF first de-lumped with a Frewitt Comill with screen size 1.0 mm. Then, it is mixed with silicon dioxide (Aerosil) and being fluidize in the fluid bed granulator for 5 minutes.
Eudragit L100 and triethyl citrate is used for coating an enteric layer for stomach acid protection on the DMF API particles. Samples were taken at different L100 weight gain to compare gastric protection capability.
Unmilled coarse DMF were coated according to the method of described in Example 5. Various properties of the unmilled coarse DMF and enterically coated DMF are compared with wet-milled DMF and enterically coated DMF made from wet-milled DMF.

[2] = Mean particle size of coarse DMF from current synthesis (method not given); type: physicochemical; conditions: DMF isolated from current chemical synthesis, before size reduction

Coated crystals [1]: Significant agglomeration | Flow of API particle in fluid bed ([1]; fluid bed coating process): Uneven flow due to API plate | Particle morphology ([1]; uncoated API particles): 2D plate structure | typical mean particle size [2]: 500-600 microns
Structure (SMILES): COC(=O)/C=C/C(=O)OC [Unmilled coarse API, dimethyl fumarate]
Coated crystals ([1]; listed as unmilled coarse DMF particles): Significant agglomeration of the coated particles
